Measurements from patent publication US8012711B2, “Methods of screening for compounds that reduce microbial resistance to fluoroquinolones” (priority 1999, dated 2011).
In brackets after ≈: the same amount, converted by molar mass. Read-outs that look alike come from different tables or passages of the source.

Legend:
[1] = tested on: Escherichia coli K-12 AG100, its Mar mutant AG112 and derived fluoroquinolone-resistant mutants (acrAB+); assay: MIC by broth microdilution, acrAB+ strains; format: cell-based; conditions: Escherichia coli
Procedure: Selection of fluoroquinolone-resistant mutants. 1-AG100, 2°-AG100, 3*-AG100, 4*-AG100 and 1′-AG112, 2′-AG112, 3′-AG112 were sequential step mutants derived from AG 100 and AG112, respectively, on solid media. For each step, about 10^11 cells of an overnight culture were plated on several LB agar plates supplemented with increasing concentrations of OFL. Single colonies were further purified on OFL-supplemented agar plates. Mutant 2°-AG100 came out of one series, while mutants 3*- and 4*-AG100 came from a second series.
(§1) Susceptibility testing. MICs of selected antimicrobial agents were determined by a standard broth microdilution procedure with cation-adjusted Mueller-Hinton broth (Becton Dickinson, Cockeysville, Md.) and an inoculum of 5×10^5 CFU/ml according to NCCLS performance and interpretive guidelines (NCCLS. 1997. Methods for dilution antimicrobial susceptibility. Tests for bacteria that grow aerobically—Fourth Edition; Approved Standard. NCCLS document M7-A4 (ISBN 1-56238-309-4). NCCLS, 940 West Valley Road, Suite 1400, Wayne, Pa. 19087). Antimicrobial agents on the commercially available microtiter plates (Merlin Diagnostics GmbH, Bornheim, Germany) included the FQs ciprofloxacin (CIP), enoxacin, fleroxacin, nor-flo-xacin, ofloxacin (OFL), pefloxacin, sparfloxacin (SPX), and trovafloxacin (TVA). They also included tetracycline (TET), chloramphenicol (CML), trimethoprim (TMP), cefoxitin (CFOX), cefaclor, cefixim and loracarbef. MICs of bile salts were determined by a broth macrodilution procedure: sodium cholate and sodium deoxycholate were serially diluted twofold in LB broth and tubes inoculated at 5×10^5 CFU/ml. MICs of both antibiotics and bile salts were determined twice in independent experiments with reproducible results.

[2] = tested on: Escherichia coli AG100, AG112 and derived fluoroquinolone-resistant mutants with ΔacrAB; assay: MIC by broth microdilution, AcrAB-deleted strains; format: cell-based; conditions: Escherichia coli
Procedure: as §1
P1 transduction. […] DNA sequencing.

[3] = tested on: Escherichia coli K-12 AG100, AG112 and derived fluoroquinolone-resistant mutants (wild-type acrAB); conditions: whole energized cells
[4] = tested on: Escherichia coli AG100, AG112 and derived mutants bearing ΔacrAB; conditions: all strains, energized cells
[5] = strain 1-AG100, acrAB+, read-out: MIC
[6] = strain 1-AG112 (1′-AG112), acrAB+, read-out: MIC
[7] = strain 2-AG100 (2°-AG100), acrAB+, read-out: MIC
[8] = strain 2-AG112 (2′-AG112), acrAB+, read-out: MIC
[9] = strain 3*-AG100, acrAB+, read-out: MIC
[10] = strain 3-AG112 (3′-AG112), acrAB+, read-out: MIC
[11] = strain 4*-AG100, acrAB+, read-out: MIC
[12] = strain AG100, acrAB+, read-out: MIC
[13] = strain AG112 (Mar mutant), acrAB+
[14] = strain 1-AG112 (1′-AG112), ΔacrAB
[15] = strain 2-AG100 (2°-AG100), ΔacrAB
[16] = strain 2-AG112 (2′-AG112), ΔacrAB
[17] = strain 3-AG112 (3′-AG112), ΔacrAB
[18] = strain 2-AG100 (2°-AG100), acrAB+

Structure (SMILES) | MIC [1, 5] [µg/mL] | MIC [1, 6] [µg/mL] | MIC [1, 7] [µg/mL] | MIC [1, 8] [µg/mL] | MIC [1, 9] [µg/mL] | MIC [1, 10] [µg/mL] | MIC [1, 11] [µg/mL] | MIC [1, 12] [µg/mL] | MIC [1, 13] [µg/mL] | MIC ([2]; strain 1-AG100, ΔacrAB) [µg/mL] | MIC [2, 14] [µg/mL] | MIC [2, 15] [µg/mL] | MIC [2, 16] [µg/mL] | MIC ([2]; strain 3*-AG100, ΔacrAB) [µg/mL] | MIC [2, 17] [µg/mL] | MIC ([2]; strain 4*-AG100, ΔacrAB) [µg/mL] | MIC ([2]; strain AG100, ΔacrAB) [µg/mL] | MIC ([2]; strain AG112, ΔacrAB) [µg/mL] | MIC [1, 18] [µg/mL] | other results
CO[C@@]1(NC(=O)Cc2cccs2)C(=O)N2C(C(=O)O)=C(COC(N)=O)CS[C@@H]21 [CFOX, cefoxitin] | 4 (≈ 9.36 µM) | 16 (≈ 37.4 µM) | 16 (≈ 37.4 µM) | 32 (≈ 74.9 µM) | 32 (≈ 74.9 µM) | 64 (≈ 150 µM) | 32 (≈ 74.9 µM) | 4 (≈ 9.36 µM) | 32 (≈ 74.9 µM) | 0.5 (≈ 1.17 µM) | 1 (≈ 2.34 µM) | 0.5 (≈ 1.17 µM) | 0.5 (≈ 1.17 µM) | 0.5 (≈ 1.17 µM) | 0.5 (≈ 1.17 µM) | 1 (≈ 2.34 µM) | 0.5 (≈ 1.17 µM) | 1 (≈ 2.34 µM) |  | 
O=C(N[C@H](CO)[C@H](O)c1ccc([N+](=O)[O-])cc1)C(Cl)Cl [CML, chloramphenicol] | 4 (≈ 12.4 µM) | 32 (≈ 99 µM) | 16 (≈ 49.5 µM) | 64 (≈ 198 µM) | 32 (≈ 99 µM) | 64 (≈ 198 µM) | 64 (≈ 198 µM) | 4 (≈ 12.4 µM) | 16 (≈ 49.5 µM) | 1 (≈ 3.09 µM) | 1 (≈ 3.09 µM) | 1 (≈ 3.09 µM) | 1 (≈ 3.09 µM) | 1 (≈ 3.09 µM) | 1 (≈ 3.09 µM) | 1 (≈ 3.09 µM) | 1 (≈ 3.09 µM) | 1 (≈ 3.09 µM) |  | 
O=C(O)c1cn(C2CC2)c2cc(N3CCNCC3)c(F)cc2c1=O [CIP, ciprofloxacin] | 0.25 (≈ 0.754 µM) | 0.5 (≈ 1.51 µM) |  | 2 (≈ 6.04 µM) | 1 (≈ 3.02 µM) | 4 (≈ 12.1 µM) | 2 (≈ 6.04 µM) | ≤ 0.015 | 0.06 (≈ 0.181 µM) | 0.06 (≈ 0.181 µM) | 0.03 (≈ 0.0905 µM) | 0.06 (≈ 0.181 µM) | 0.03 (≈ 0.0905 µM) | 0.06 (≈ 0.181 µM) | 0.03 (≈ 0.0905 µM) | 0.125 (≈ 0.377 µM) | ≤ 0.015 | ≤ 0.015 | 0.5 (≈ 1.51 µM) | Time at which CIP accumulation reached a plateau [3]: ≤ 5 min; Active efflux of ciprofloxacin upon deletion of AcrAB [4]: completely aborted; Active efflux of ciprofloxacin upon deletion of AcrAB ([4]; listed as cfx): completely abolished
N[C@@H]1[C@H]2CN(c3nc4c(cc3F)c(=O)c(C(=O)O)cn4-c3ccc(F)cc3F)C[C@@H]12 [TVA, trovafloxacin] | 0.25 (≈ 0.6 µM) | 0.5 (≈ 1.2 µM) |  | 1 (≈ 2.4 µM) | 0.5 (≈ 1.2 µM) | 2 (≈ 4.8 µM) | 2 (≈ 4.8 µM) | 0.06 (≈ 0.144 µM) | 0.125 (≈ 0.3 µM) | 0.06 (≈ 0.144 µM) | 0.06 (≈ 0.144 µM) | 0.06 (≈ 0.144 µM) | 0.06 (≈ 0.144 µM) | 0.06 (≈ 0.144 µM) | 0.06 (≈ 0.144 µM) | 0.125 (≈ 0.3 µM) | ≤ 0.03 | ≤ 0.03 | 0.25 (≈ 0.6 µM) | 
